According to patent US20260309717A1, “PROXIMITY INDUCING SYSTEM AND USES THEREOF” (SORBONNE UNIVERSITE, priority 2022, published 2026):

What was measured:
Type in all cases: cell-based
[1] = biological target: T1, NLS-mCherry-^FIREmate / NES-ECFP-^FIREtag (Halorhodospira halophila, UniProt P16113, A30V/C69G/D97P/F96I, form not given/G21E/G25R/K17N/M100R/M109L/Q41L/Q99S/S72T/T101G/V83A/Y94W/Y98T); test: Nuclear export of proteins (nucleocytoplasmic trafficking), confocal microscopy, HeLa cells; conditions: 10 μM, 4 min
T1 construct: NLS-mCherry-FIREmate and NES-ECFP-FIREtag in HeLa cells
T1 sequence (P16113 1-114 A30V/C69G/D97P/F96I/G21E/G25R/K17N/M100R/M109L/Q41L/Q99S/S72T/T101G/V83A/Y94W/Y98T): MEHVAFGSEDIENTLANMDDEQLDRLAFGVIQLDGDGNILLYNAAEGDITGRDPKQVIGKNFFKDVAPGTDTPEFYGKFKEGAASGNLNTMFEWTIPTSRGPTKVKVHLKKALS
Experimental: FIGS. 13A-D illustrate the nuclear export of proteins mediated by the proximity inducing system described herein. FIG. 13A is a representation of the experimental design wherein HeLa cell co-expressing NLS-mCherry-FIR_^FIREmate and NES-ECFP-^FIREtag were treated with 10 μM of match (i.e., HBR-2,5DM) and imaged by time-lapse confocal microscopy. FIG. 13B is a graph showing the temporal evolution of the ratio nucleus-to-cytoplasm mCherry fluorescence intensities of n=5 cells from 2 independent experiments. FIG. 13C is a graph showing the temporal evolution of the FIRE signal detected upon addition of HBR-2,5DM at 0 min of n=5 cells from 2 independent experiments. […]
The confocal micrographs were acquired on a Zeiss LSM 980 Laser Scanning Microscope equipped with a plan apochromat 63x/1.4 NA oil immersion objective. […] The images were analyzed using Icy (2.4.0.0) and Fiji (Image J). In short, to track fluorescence signal in a specific organelle, a ROI (region of interest) was determined by masking the signal in the ECFP (Enhanced Cyan Fluorescent Protein) channel with the plug-in HK-means with the following parameters: intensity class equals 100, minimum object size (pixels or px) equals 500, maximum object size (px) equals 1500-3000. […]

[2] = biological target: T2, FKBP-caged^FIREtag / FRB-^FIREmate (Halorhodospira halophila, UniProt P16113, A30V/C69G/D97P/F96I, form not given/G21E/G25R/K17N/M100R/M109L/Q41L/Q99S/S72T/T101G/V83A/Y94W/Y98T); test: Flow cytometry of ternary assembly formation with caged^FIREtag, HEK293T cells
T2 construct: FKBP-caged FIREtag (PYP 2-114 C69G cage) and FRB-FIREmate co-expressed in HEK293T cells
T2 sequence (P16113 1-114 A30V/C69G/D97P/F96I/G21E/G25R/K17N/M100R/M109L/Q41L/Q99S/S72T/T101G/V83A/Y94W/Y98T): T1 sequence (P16113 1-114 A30V/C69G/D97P/F96I/G21E/G25R/K17N/M100R/M109L/Q41L/Q99S/S72T/T101G/V83A/Y94W/Y98T)
Source text: FIG. 10 is a graph illustrating the fluorogen-dependent interaction between caged ^FIREtag and ^FIREmate. […] Data represent the mean values±SD of 3 independent experiments.
Although, as indicated above, no self-complementation between ^FIREtag and ^FIREmate could be observed in the absence of fluorogen (see FIG. 3), a caged FIREt was designed to prevent any interaction with ^FIREmate in the absence of fluorogen, even at high expression levels. To cage ^FIREtag, the N-terminal domain 2-114 of Halorhodospira halophila photoactive yellow protein (PYP) C69G (corresponding to SEQ ID NO: 21) was fused to ^FIREtag. The intramolecular interaction between ^FIREtag and the N-terminal domain 2-114 of H. halophila PYP C69G induces the folding of the caged^FIREtag protein, thus preventing any intermolecular interaction of the caged^FIREtag with ^FIREmate. The fusion proteins FKBP-caged^FIREtag and FRB-^FIREmate were co-expressed in HEK293T cells. The cells were then treated with the fluorogens HBR-2,5DM at various concentrations (1, 5, 10, 25 or 50 μM as indicated), in the presence or absence of rapamycin.

[3] = biological target: T3, ^FIREmate and ^FIREtag (fused to FRB and FKBP) (Halorhodospira halophila, UniProt P16113, A30V/C69G/D97P/F96I, form not given/G21E/G25R/K17N/M100R/M109L/Q41L/Q99S/S72T/T101G/V83A/Y94W/Y98T); test: Flow cytometry of fluorescent ternary assembly formation in HEK293T cells co-expressing FKBP-^FIREtag and FRB-^FIREmate
T3 sequence (P16113 1-114 A30V/C69G/D97P/F96I/G21E/G25R/K17N/M100R/M109L/Q41L/Q99S/S72T/T101G/V83A/Y94W/Y98T): T1 sequence (P16113 1-114 A30V/C69G/D97P/F96I/G21E/G25R/K17N/M100R/M109L/Q41L/Q99S/S72T/T101G/V83A/Y94W/Y98T)
Experimental: FIGS. 2A and 2B are graphs illustrating the fluorogen-dependent interaction between the two polypeptides ^FIREmate and ^FIREtag. The graphs show the normalized average fluorescence detected from about 50,000 HEK293T cells co-expressing the FK506-binding protein (FKBP) fused to ^FIREtag and the FKBP-rapamycin-binding domain of mammalian target of rapamycin (FRB) fused to ^FIREmate treated without (triangles) or with (squares) 500 nM of rapamycin, and with 1, 5, 10, 25 or 50 μM of HBR-2,5DM (2A) or HMBR (2B). Data represent the mean values±SD of three independent experiments.
The formation of a fluorescent ternary assembly was assessed by flow cytometry in HEK293 cells expressing ^FIREmate and ^FIREtag fused to the C-termini of FKBP (FK506-binding protein) and FRB (FKBP-rapamycin-binding domain of mammalian target of rapamycin), […]. FKBP and FRB are able to dimerize upon addition of rapamycin. Treatment of the HEK293 cells with rapamycin is thus expected to induce the dimerization of FKBP and FRB, and subsequently to induce proximity between ^FIREtag and ^FIREmate.

## Cc1cc(/C=C2\SC(=S)NC2=O)c(C)cc1O [HBR-2,5DM, (Z)-5-(4-hydroxy-2,5-dimethylbenzylidene)-2-thioxo-1,3-thiazolidin-4-one]
[1]
  FIRE signal in the cytoplasm: strong cytoplasmic green fluorescence
  cytoplasmic localization of the formed protein complex (nuclear export of NLS-mCherry-^FIREmate): efficient cytoplasmic localization of the formed protein complex
[2]; 1, 5, 10, 25 or 50 μM, even in absence of rapamycin
  formation of fluorescent ternary assembly with caged^FIREtag and ^FIREmate: could still form a fluorescent ternary assembly
[2]; absence of rapamycin
  concentration required to reach full ternary assembly with caged^FIREtag: higher concentrations of HBR-2,5DM were required to reach full ternary assembly in absence of rapamycin
[3]; absence of rapamycin
  dimerization of FKBP and FRB (induced proximity): able to induce the dimerization of FKBP and FRB
[3]; fluorogen 1, 5, 10, 25 or 50 μM, HEK293 cells
  formation of a ternary fluorescent assembly: induced the formation of a ternary fluorescent assembly at all tested fluorogen concentrations
[3]; with or without 500 nM rapamycin, fluorogen 1-50 μM
  dependence of ternary fluorescent assembly formation on rapamycin (initial proximity): regardless of the presence or absence of rapamycin
